We go through two compounds from patent US9738668B2.

“Also recorded” adds a separate entry of the source.

One series deals with SK-N-SH cells. As to the kind of experiment: Mitochondrial cytochrome c oxidase (CcO) activity in Aβ-treated cells. The conditions noted are these: for CcO activity, inhibitor alone: 1 μM inhibitor without Aβ; for CcO activity: 5 μM oligomer Aβ1-42 plus 1 μM inhibitor, 48 hours. It counts as cell-based. As for the experimental part:
SK-NSH cells were treated with 5 μM oligomer Aβ plus 1 μM of ABAD inhibitor; inhibitor alone; vehicle (VEH) without inhibitor; or Aβ alone. Forty-eight hour later, CcO activity (μmol protein mg^−1 min^−1) was measured in cell lysates.
The CcO activity was measured according to known methods (Du, et al. (2008) Nat. Med. 14:1097-105) with a cytochrome c oxidase kit (Sigma). In brief, SK-N-SH cells were incubated with ABAD inhibitor and oligomer Aβ for 48 hours. After washing the cells twice with PBS, the cells were collected and concentration was determined by the Bradford method. A suitable volume of cells and enzyme solution was added to 475 μl assay buffer. The reaction was triggered by the addition of 25 μl freshly prepared ferrocytochrome C substrate solution into the cuvette. Changes in OD550 nm were recorded immediately with an Amersham Biosciences ULTROSPECT 3100 pro spectrophotometer.
To assess the effect of ABAD inhibitor on Aft-induced mitochondrial respiratory function, CcO activity was determined.

For the next series, the system named is cells. Nature of the series: MTT reduction assay (cell survival and toxicity). It counts as cell-based. The conditions noted are these: 1, 10, 50, 100 μM, 48 to 66 hours. As for the experimental part:
The MTT (3-(4,5-dimethylthiazol-2-yl)-2,5-diphenyltetrazolium bromide) assay, which is widely used to measure cell proliferation and to screen for anticancer drugs, was used for assessing cell viability. Cells were treated with a range of ABAD compounds at 1, 10, 50, and 100 μM for 48 hours and then subjected to MTT reduction assay following the manufacture's instruction.
The effect of ABAD inhibitors on cell viability and toxicity was assessed using MTT reduction assay and trypan blue exclusion, which are widely used to assess cell survival and toxicity and to screen for drugs toxicity. Cells were treated with a range of concentrations of ABAD compound (4 and 8) at 1, 10, 50, 100 μM for 48 to 66 hours.

Series [1] can be described thus: Pharmacokinetic study and BBB penetration, LC-MS/MS of plasma and brain. The format is in vivo, C57BL6 mice. The conditions noted are these: mice, intravenous 10 mg/kg. As for the experimental part: Using the validated LCMS/MS method, blood and brain levels of 4, 8, and 15 were measured in male and female C57BL6 mice (8-10 week-old, weighing approximately 25-30 grams). The mice were housed in a room with controlled temperature (23±3° C.) and moisture level (55±15% relative humidity) and exposed to a controlled 12 hour light/12 hour dark cycle. They were allowed to access to food and water ad libitum. Mice were fasted for 6 hours with free access to water prior to the pharmacokinetic study. To determine the time course of compounds 4, 8, and 15 action in the brain, the plasma pharmacokinetics and BBB penetration capability of the inhibitors were investigated. In these experiments, compounds 4, 8, and 15 were administered to mice by intravenous injection at a dosage of 10 mg/kg. Blood and brain samples were collected from mouse at each time point (2, 5, 10, 30, 60, 120, 240, 360, 720, 1440, and 2880 minutes), a total of 11 time points. For plasma measurements, blood (approximately 500-800 μl) was collected via cardiac-puncture into tubes containing sodium heparin anti-coagulant. Plasma was separated via centrifugation (4° C., 3500 rpm, 10 minutes) and stored in −80° C. freezer. For qualitative confirmations of these compounds in CSF, samples were collected at 2 time points (240 and 1440 min) from five animals at each time point. At the time of measurement, frozen plasma samples were thawed at room temperature and vortexed thoroughly. The following quantities were estimated using non-compartmental calculations performed with WINNONLIN 5.2 (Pharsight, Sunnyvale, Calif.): the area under the plasma concentration-time curve during the period of observation (AUC0-τ); the area under the plasma concentration-time curve from zero to infinity (AUC0-∞); the maximum plasma concentration (Cmax); the time to reach Cmax (Tmax); and the half-life (t1/2).
The LC-MS/MS method described above was used for the determination of 4, 8 and 15 in plasma, brain, and CSF for pharmacokinetic study. Based on the initial concentration data, the pharmacokinetic parameters including the area under the plasma concentration-time curve during the period of observation (AUC0-t), the area under the plasma concentration-time curve from zero to infinity (AUC0-∞) the maximum plasma concentration (Cmax) the time to reach Cmax (Tmax) and the half-life (t1/2) are shown in Table 8.

The next series concerns mAPP mice. As to the kind of experiment: Morris water maze learning and memory in Alzheimer's Disease transgenic mice. The format is in vivo. The conditions noted are these: for latency to find the hidden platform: treated vs untreated AD mice; for number of crossings at the target location / percent of time spent in the target quadrant: treated vs untreated mAPP mice, probe trial. As to the method: Wild-type mice (Non Tg) were also administered Compound 8 (n=5) and vehicle (n=5). Each mouse was given four 60-second trials per day for six consecutive days to find the hidden platform in a Morris water maze.
Wild-type mice were also administered Compound 8 […]. Each mouse was given four 60-second trials per day for seven consecutive days to find the hidden platform in a Morris water maze.
Each mouse was given four 60-second trials per day for six consecutive days to find the hidden platform in a Morris water maze.
In addition, the effect of Compounds 4 and 8 on learning and memory of Alzheimer's Disease (AD) transgenic mice was evaluated. Six month and 9-14 month-old transgenic mice overexpressing a mutated form of the human amyloid precursor protein (mAPP mice) and their wild-type (non Tg) littermates were used in this study. […] Moreover, performance in a spatial MWM trial was evaluated using crossings over the platform area (an index of memory precision; Morris (1984) J. Neurosci. Methods 11:47-60), percent of time spent in target quadrant (an index of memory retrieval; Morris (1984) J. Neurosci. Methods 11:47-60), and swim paths.

In series [2] the test system is hippocampal long-term potentiation. As to the kind of experiment: Hippocampal long-term potentiation (LTP) in slices from treated mice. The format is in vivo. The conditions noted are these: hippocampal slices from treated mAPP mice. As for the experimental part: LTP was induced by theta-burst stimulation (TBS) 20 minutes after baseline recordings in hippocampal slices from Non-Tg mice treated with vehicle (n=9 slices from 3 mice), Non-Tg mice treated with Compound 8 (n=9 slices from 3 mice), mAPP mice treated with vehicle (n=8 slices from 3 mice), and mAPP mice treated with Compound 8 (n=8 slices from 3 mice). LTP is expressed as percentage potentiation of baseline (100%)(FIG. 5A).
LTP is expressed as percentage potentiation of baseline (100%)(FIG. 7A).
Synaptic failure in AD is largely reflected by impaired long-term synaptic plasticity in terms of long-term potentiation (LTP). […] Representative field excitatory post-synaptic potentials (fEPSP) waveforms are provided in FIGS. 5A and 7A and the residual potentiation from fEPSP slopes occurring over the last 5 minutes of LTP recording are provided in FIGS. 5B and 7B.

With `COc1ccc2nc(N[C@@H](c3ccc(O)cc3)P(=O)(OC)OC)sc2c1` (racemic) [Compound 8, Dimethyl ((4-hydroxyphenyl)((6-methoxybenzo[d]thiazol-2-yl)amino)methyl)phosphonate], in the series with SK-N-SH cells, the “CcO activity, inhibitor alone” value was “had no effect on CcO activity” and the CcO activity result is “reversed the Aβ-mediated decrease of CcO activity”. Moreover, in the series on cells, the MTT reduction result is “did not exhibit decreased MTT reduction”. Moreover, the “t1/2” value in series [1] (Brain) came to 8.3 h. Also, in series [1] (Plasma), the “t1/2” value is 5.5 h. In the series on mAPP mice, the “latency to find the hidden platform” value is “significantly shorter latency”, the “number of crossings at the target location” value is reported as “significantly more” and the “percent of time spent in the target quadrant” value is recorded as “significantly more”. Also, the “hippocampal long-term potentiation (LTP)” value in series [2] is reported as “impairments were diminished; also recorded: protective effects”.
Regarding `COC(=O)c1cc([C@H](Nc2nc3ccc(OC)cc3s2)P(=O)(OC)OC)ccc1O` [Compound 4, Methyl 5-((dimethoxyphosphoryl)((6-methoxybenzo[d]thiazol-2-yl)amino)methyl)-2-hydroxybenzoate], in the series with SK-N-SH cells, the “CcO activity, inhibitor alone” value was “had no effect on CcO activity” and the CcO activity result is given as “reversed the Aβ-mediated decrease of CcO activity”. In addition, the MTT reduction result in the series with cells is listed as “did not exhibit decreased MTT reduction”. Besides, the “t1/2” value in series [1] (Brain) came out at 17.1 h. Also, in series [1] (Plasma), the “t1/2” value stood at 6.2 h. Further, in the series with mAPP mice, the “latency to find the hidden platform” value was “significantly shorter latency”, the “number of crossings at the target location” value is reported as “significantly more” and the “percent of time spent in the target quadrant” value was “significantly more”. Further, the “hippocampal long-term potentiation (LTP)” value in series [2] was “impairments were diminished; also recorded: protective effects”.
